This test deals with T1, KRAS G12C 1-169, his-tagged protein, GDP-loaded (Homo sapiens, UniProt P01116, G12C).
T1 construct: KRAS G12C 1-169, his-tagged protein, GDP-loaded
Kind of test: Biochemical assay: covalent modification of KRAS G12C measured by mass spectrometry (RapidFire/TOF or Q-Exactive). To be noted: covalent binding to KRAS G12C; compounds of structure (I). In short, it runs like this: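 GDP-loaded his-tagged KRAS G12C 1-169 at 2 μM in 20 mM Hepes, 150 mM NaCl, 1 mM MgCl2 incubated at room temperature with compound (10, 30 or 100 μM final, 2% DMSO) for 30 min, 2 h or 24 h, then quenched with formic acid. Intact-protein LC-MS (RapidFire/TOF or Q-Exactive) with deconvolution quantified modified versus unmodified protein.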

Take `C=CC(=O)N1CCN(c2nc(OCCN3CCC(F)(F)C3)nc3c(F)c(-c4c(O)cccc4F)c(Cl)cc23)CC1` [Example I-30, 1-(4-(6-chloro-2-(2-(3,3-difluoro-pyrrolidin-1-yl)ethoxy)-8-fluoro-7-(2-fluoro-6-hydroxyphenyl)quinazolin-4-yl)piperazin-1-yl) prop-2-en-1-one]: the Binding % result was “+++ (+++ indicates binding activity greater than 90%)”.

As to `C=CC(=O)N1CCN(c2nc(OCCN3CC[C@H](OC)C3)nc3c(F)c(-c4c(O)cccc4F)c(Cl)cc23)CC1` [Example I-33, 1-(4-(6-chloro-8-fluoro-7-(2-fluoro-6-hydroxyphenyl)-2-(2-((S)-3-methoxy-pyrrolidin-1-yl)ethoxy)quinazolin-4-yl)piperazin-1-yl)prop-2-en-1-one], the Binding % result is on record as “+++ (+++ indicates binding activity greater than 90%)”.

On to `C=CC(=O)N1CCN(c2nc(CCN(C)C)nc3c(F)c(-c4c(C)ccc5[nH]ncc45)c(Cl)cc23)CC1` [Example I-34, 1-(4-(6-chloro-2-(2-(dimethyl-amino)ethyl)-8-fluoro-7-(5-methyl-1H-indazol-4-yl)quinazolin-4-yl)piperazin-1-yl)prop-2-en-1-one], for which the Binding % entry was “+++ (+++ indicates binding activity greater than 90%)”.

`C=CC(=O)N1CCN(c2nc(OCC3CCN(CC(F)(F)F)CC3)nc3c(F)c(-c4c(O)cccc4F)c(Cl)cc23)CC1` [Example I-35, 1-(4-(6-chloro-8-fluoro-7-(2-fluoro-6-hydroxyphenyl)-2-((1-(2,2,2-trifluoroethyl)piperidin-4-yl)methoxy)quinazolin-4-yl)piperazin-1-yl)prop-2-en-1-one]: the Binding % entry is reported as “++ (++ indicates binding activity from 50 to 90%)”.

With `C=CC(=O)N1CCN(c2nc(OCCN3CC(F)(F)C3)nc3c(F)c(-c4c(O)cccc4F)c(Cl)cc23)CC1` [Example I-36, 1-(4-(6-chloro-2-(2-(3,3-difluoroazetidin-1-yl)ethoxy)-8-fluoro-7-(2-fluoro-6-hydroxyphenyl)quinazolin-4-yl)piperazin-1-yl) prop-2-en-1-one], the Binding % result is “+++ (+++ indicates binding activity greater than 90%)”.

Turning to `C=CC(=O)N1CCN(c2nc(OCCN3CCOCC3)nc3c(F)c(-c4ccccc4C(C)C)c(Cl)cc23)CC1` [Example I-37, 1-(4-(6-chloro-8-fluoro-7-(2-isopropylphenyl)-2-(2-morpholino-ethoxy)quinazolin-4-yl)piperazin-1-yl)prop-2-en-1-one], the Binding % result is given as “+++ (+++ indicates binding activity greater than 90%)”.

On to `C=CC(=O)N1CCN(c2nc(OCCN3CCC(F)(F)CC3)nc3c(F)c(-c4c(O)cccc4F)c(Cl)cc23)CC1` [Example I-38, 1-(4-(6-chloro-2-(2-(4,4-difluoro-piperidin-1-yl)ethoxy)-8-fluoro-7-(2-fluoro-6-hydroxyphenyl)quinazolin-4-yl)piperazin-1-yl) prop-2-en-1-one], for which the Binding % entry was “+++ (+++ indicates binding activity greater than 90%)”.

Turning to `C=CC(=O)N1CCN(c2nc(OCCN3CCOCC3)nc3c(F)c(-c4c(F)cccc4OC)c(Cl)cc23)CC1` [Example I-39, 1-(4-(6-chloro-8-fluoro-7-(2-fluoro-6-methoxyphenyl)-2-(2-morpholino-ethoxy)quinazolin-4-yl)piperazin-1-yl)prop-2-en-1-one], the Binding % result is on record as “+++ (+++ indicates binding activity greater than 90%)”.

For `C=CC(=O)N1CCN(c2nc(OCCN(CC)CC)nc3c(F)c(-c4c(O)cccc4F)c(Cl)cc23)CC1` [Example I-40, 1-(4-(6-chloro-2-(2-(diethyl-amino)ethoxy)-8-fluoro-7-(2-fluoro-6-hydroxyphenyl)quinazolin-4-yl)piperazin-1-yl) prop-2-en-1-one], the Binding % entry was “+++ (+++ indicates binding activity greater than 90%)”.

With `C=CC(=O)N1CCN(c2nc(N3CC(N4CCN(C)CC4)C3)nc3c(F)c(-c4c(O)cccc4F)c(Cl)cc23)CC1` [Example I-41, 1-(4-(6-chloro-8-fluoro-7-(2-fluoro-6-hydroxyphenyl)-2-(3-(4-methyl-piperazin-1-yl)azetidin-1-yl)quinazolin-4-yl)piperazin-1-yl)prop-2-en-1-one], the Binding % entry is “+++ (+++ indicates binding activity greater than 90%)”.

For the molecule `C=CC(=O)N1CCN(c2nc(OCCN3CCN(C(C)C)CC3)nc3c(F)c(-c4c(O)cccc4F)c(Cl)cc23)CC1` [Example I-42, 1-(4-(6-chloro-8-fluoro-7-(2-fluoro-6-hydroxyphenyl)-2-(2-(4-isopropyl-piperazin-1-yl)ethoxy)quinazolin-4-yl)piperazin-1-yl)prop-2-en-1-one], the Binding % entry was “+++ (+++ indicates binding activity greater than 90%)”.

For the molecule `C=CC(=O)N1CCN(c2nc(OCCN3CCC3)nc3c(F)c(-c4c(O)cccc4F)c(Cl)cc23)CC1` [Example I-43, 1-(4-(2-(2-(azetidin-1-yl)ethoxy)-6-chloro-8-fluoro-7-(2-fluoro-6-hydroxyphenyl)quinazolin-4-yl)piperazin-1-yl) prop-2-en-1-one], the Binding % entry is on record as “+++ (+++ indicates binding activity greater than 90%)”.

As for `C=CC(=O)N1CCN(c2nc(OCCc3ccccn3)nc3c(F)c(-c4cc(O)cc5ccccc45)c(Cl)cc23)CC1` [Example I-44, 1-(4-(6-chloro-8-fluoro-7-(3-hydroxy-naphthalen-1-yl)-2-(2-(pyridin-2-yl)ethoxy)quinazolin-4-yl)piperazin-1-yl) prop-2-en-1-one], the Binding % result is listed as “+++ (+++ indicates binding activity greater than 90%)”.

Regarding `C=CC(=O)N1CCN(c2nc(OCCc3ccccn3)nc3c(F)c(-c4c(O)cccc4F)c(Cl)cc23)CC1` [Example I-45, 1-(4-(6-chloro-8-fluoro-7-(2-fluoro-6-hydroxyphenyl)-2-(2-(pyridin-2-yl)ethoxy)quinazolin-4-yl)piperazin-1-yl)prop-2-en-1-one], the Binding % result is reported as “+++ (+++ indicates binding activity greater than 90%)”.

With `C=CC(=O)N1CCN(c2nc(N3CCOCC3)nc3c(F)c(-c4cc(O)cc5ccccc45)c(Cl)cc23)CC1` [Example I-46, 1-(4-(6-chloro-8-fluoro-7-(3-hydroxy-naphthalen-1-yl)-2-morpholino-quinazolin-4-yl)piperazin-1-yl)prop-2-en-1-one], the Binding % entry is on record as “+++ (+++ indicates binding activity greater than 90%)”.

`C=CC(=O)N1CCN(c2nc(N3CCOCC3)nc3c(F)c(-c4c(O)cccc4F)c(Cl)cc23)CC1` [Example I-47, 1-(4-(6-chloro-8-fluoro-7-(2-fluoro-6-hydroxyphenyl)-2-morpholino-quinazolin-4-yl)piperazin-1-yl)prop-2-en-1-one]: the Binding % result is on record as “+++ (+++ indicates binding activity greater than 90%)”.

Take `C=CC(=O)N1CCN(c2nc(OCCN3CCOCC3)nc3c(F)c(-c4ccccc4C(F)(F)F)c(Cl)cc23)CC1` [Example I-48, 1-(4-(6-chloro-8-fluoro-2-(2-morpholino-ethoxy)-7-(2-(trifluoromethyl)phenyl)quinazolin-4-yl)piperazin-1-yl)prop-2-en-1-one]: the Binding % result is given as “+++ (+++ indicates binding activity greater than 90%)”.

Consider `C=CC(=O)N1CCN(c2nc(C(=O)N3CCOCC3)nc3c(F)c(-c4c(O)cccc4F)c(Cl)cc23)CC1` [Example I-49, 1-(4-(6-chloro-8-fluoro-7-(2-fluoro-6-hydroxyphenyl)-2-(morpholine-4-carbonyl)quinazolin-4-yl)piperazin-1-yl) prop-2-en-1-one], for which the Binding % result is listed as “+++ (+++ indicates binding activity greater than 90%)”.

Regarding `C=C(F)C(=O)N1CCN(c2nc(OCCN3CCOCC3)nc3c(F)c(-c4cc(O)cc5ccccc45)c(Cl)cc23)CC1` [Example I-50, 1-(4-(6-chloro-8-fluoro-7-(3-hydroxy-naphthalen-1-yl)-2-(2-morpholino-ethoxy)quinazolin-4-yl)piperazin-1-yl)-2-fluoroprop-2-en-1-one], the Binding % result is reported as “++ (++ indicates binding activity from 50 to 90%)”.

Regarding `C=CC(=O)N1CCN(c2nc(OCC(O)CN(C)C)nc3c(F)c(-c4c(C)ccc5[nH]ncc45)c(Cl)cc23)CC1` (stereo not drawn) [Example I-53, 1-(4-(6-chloro-2-(3-(dimethyl-amino)-2-hydroxy-propoxy)-8-fluoro-7-(5-methyl-1H-indazol-4-yl)quinazolin-4-yl)piperazin-1-yl)prop-2-en-1-one], the Binding % entry is listed as “+++ (+++ indicates binding activity greater than 90%)”.

Take `C=CC(=O)N1CCN(c2nc(OCCc3ccccn3)nc3c(F)c(-c4cc(OC)cc5ccccc45)c(Cl)cc23)CC1` [Example I-54, 1-(4-(6-chloro-8-fluoro-7-(3-methoxy-naphthalen-1-yl)-2-(2-(pyridin-2-yl)ethoxy)quinazolin-4-yl)piperazin-1-yl)prop-2-en-1-one]: the Binding % entry is given as “+ (+ indicates binding activity up to 50%)”.

With `C=CC(=O)N1CCN(c2nc(N3CC(N(C)C)C3)nc3c(F)c(-c4c(O)cccc4F)c(Cl)cc23)CC1` [Example I-55, 1-(4-(6-chloro-2-(3-(dimethyl-amino)azetidin-1-yl)-8-fluoro-7-(2-fluoro-6-hydroxyphenyl)quinazolin-4-yl)piperazin-1-yl) prop-2-en-1-one], the Binding % entry is given as “+++ (+++ indicates binding activity greater than 90%)”.

For the molecule `C=CC(=O)N1CCN(c2nc(NCCN3CC[C@@H](O)C3)nc3c(F)c(-c4c(O)cccc4F)c(Cl)cc23)CC1` [Example I-56, 1-(4-(6-chloro-8-fluoro-7-(2-fluoro-6-hydroxyphenyl)-2-(2-((R)-3-hydroxy-pyrrolidin-1-yl)ethylamino)quinazolin-4-yl)piperazin-1-yl) prop-2-en-1-one], the Binding % result was “+++ (+++ indicates binding activity greater than 90%)”.

In the case of `C=CC(=O)N1CCN(c2nc(OCCN3CCOCC3=O)nc3c(F)c(-c4cc(O)cc5ccccc45)c(Cl)cc23)CC1` [Example I-57, 4-(2-(4-(4-acryloyl-piperazin-1-yl)-6-chloro-8-fluoro-7-(3-hydroxy-naphthalen-1-yl)quinazolin-2-yloxy)ethyl) morpholin-3-one], the Binding % entry was “+++ (+++ indicates binding activity greater than 90%)”.

(Values after patent US10829458B2 (Araxes Pharma LLC, priority 2015, dated 2020).)
